Test results: patent US7407989B2, “Compounds useful for modulating abnormal cell proliferation” (The Hospital for Sick Children, priority 2004, dated 2008)

Legend:
[1] = system: Philadelphia Positive Z119 Acute Lymphoblastic Leukemia Cells; test: Killing of Philadelphia positive Z119 acute lymphoblastic leukemia cells in culture (colony assay in methylcellulose); type: cell-based; conditions: colonies of more than 20 cells counted at 7-9 days, no exogenous growth factors, read-out: ALL (Z 119) IC50
Procedure: Z119 cells were plated in 1 ml volumes at a density of 5×10^4 cells/ml, in the absence of exogenous growth factors, into 35 mm petri dishes (Nunc, Gibco) containing IMDM (OCI, Toronto) plus 20% FCS (Cansera Rexdale, ON.) in 0.9% (vol/vol) methylcellulose (Fluka, Switzerland) with the indicated concentration of for various test compounds described above. Cultures were set at 37° C., 5% CO2 in a humidified atmosphere. Colonies consisting of more than 20 cells were counted at 7-9 days using an inverted microscope.

[2] = system: normal bone marrow cells (BFU-E colonies); test: Effect upon normal bone marrow differentiation in culture (CFU-GEMM assay, BFU-E colonies); type: cell-based; conditions: Bone marrow cell, 336 h, BFU-E colonies evaluated at 14 days, read-out: NBM (BFU-E) IC50
Procedure: The CFU-GEMM assay was performed according to Fauser and Messner (1978, Blood, 52(6) 143-8) and Messner and Fausser (1980, Blut, 41(5) 327-33) with some variations. In brief, heparinized bone marrow cells were layered over Percoll (1.077 gm/ml) (Pharmacia Fine Chemical, Piscataway N.J.) and centrifuged at 400 g at 4° C. for 10 minutes to remove neutrophils and RBCs. The fractionated BM cells at […] were cultured in IMDM (OCI, Toronto) containing 0.9% (vol/vol) methylcellulose supplemented with 30% FCS (Cansera Rexdale, ON.) or normal human plasma, a cocktail of cytokines containing G-CSF (10 ng/ml, Amgen), IL-3 (40 U/ml, Immunex), MGF (50 ng/ml, Immunex), Erythropoietin (2 u/ml, Epprex) or TPO (10 ng/ml, Amgen), 5×10^−5 M Bβ-2-mercaptoethanol and the specified concentration of CR4. The culture mixture was plated in 1 ml volumes into 35 mm petri dishes and incubated at 37° C., 5% CO2 in a humidified atmosphere. All cultures were evaluated at 14 days for the number of BFU-E colonies (defined as aggregates of more than 500 hemoglobinized cells or, 3 or more erythroid subcolonies), CFU-GM colonies (defined as granulocyte or monocyte-macrophage cells or both), CFU-Meg colonies (comprising 4 or more megakaryocytes) and CFU-GEMM colonies (a mixed population comprising of all elements).

SMILES | IC50 [1] | IC50 [2]
COc1cc(/C=C/C=C/C(=O)NCc2ccccc2)ccc1O [CRD-81, 5-(4-Hydroxy-3-methoxyphenyl)-penta-2E,4E-dienoic acid benzylamide] | > 1000 nM | > 10000 nM
O=C(/C=C/C=C/c1ccc(O)c(O)c1)NCc1ccccc1 [CRD-82, 5-(3,4-Dihydroxyphenyl)-penta-2E,4E-dienoic acid benzylamide] | 460 nM | > 25000 nM
COc1cc(/C=C/C=C/C(=O)NCc2ccc(O)c(O)c2)cc(OC)c1O [CRD-84, 5-(4-Hydroxy-3,5-dimethoxyphenyl)-penta-2E,4E-dienoic acid 3,4-dihydroxybenzylamide] | > 1000 nM | > 10000 nM
COc1cc(/C=C/C=C/C(=O)NCc2ccc(O)c(O)c2)ccc1O [CRD-85, 5-(4-Hydroxy-3-methoxyphenyl)-penta-2E,4E-dienoic acid 3,4-dihydroxybenzylamide] | > 1000 nM | > 10000 nM
